Assay results taken from US10479795B2 (Incyte Corporation, priority 2016, dated 2019).
Structures can show the parent of a compound that is named as a salt. Where two headings read alike, the source gives them in different places.

Key:
[1] = biological target: PI3Kγ (p110γ) Recombinant Human Protein (Homo sapiens (Human), UniProt P48736); test: PI3K-γ Scintillation Proximity Assay; assay type: biochemical; settings: read-out: PI3Kγ IC50
Outline: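 Radiometric SPA readout: […] bound to WGA beads after overnight shaking, IC50 derived from % activity of DMSO control. Reaction used human p110γ, 2 μM ATP, 20 μM PIP2, pH 6.7 MOPS buffer with MgCl2, DTT, CHAPS, 2% DMSO, room temperature.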

[2] = test system: Phosphorylated Ribosomal Protein S6 (RPS6); test: THP-1 RPS6 ELISA Assay; assay type: cell-based, Human; settings: THP-1 cells, read-out: PI3Kγ_THP1_RPS6_ELISA IC50
Outline: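 IC50 values come from a curve of percent inhibition against log compound concentration, using phospho-RPS6 ELISA (450 nm) on THP-1 lysates. Cells were serum-starved overnight, exposed to compound for 2 h at 37 °C, then challenged 15 min with 10 nM MCP-1.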

[3] = biological target: PI3Kδ (p110δ/p85α) Recombinant Human Protein (Homo sapiens (Human), UniProt O00329); test: PI3Kδ Scintillation Proximity Assay; assay type: biochemical
Outline: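 Assay conditions: 2 μM ATP (radiolabelled), 20 μM PIP2, 3.4 nM PI3Kδ, 20 mM MOPS pH 6.7 with 10 mM MgCl2, 5 mM DTT, 0.03% CHAPS, 2 h at room temperature. Signal from bead-captured 33P product; IC50 versus solvent control.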

PI3Kδ (p110δ/p85α) Recombinant Human Protein, sequence (O00329 whole entry): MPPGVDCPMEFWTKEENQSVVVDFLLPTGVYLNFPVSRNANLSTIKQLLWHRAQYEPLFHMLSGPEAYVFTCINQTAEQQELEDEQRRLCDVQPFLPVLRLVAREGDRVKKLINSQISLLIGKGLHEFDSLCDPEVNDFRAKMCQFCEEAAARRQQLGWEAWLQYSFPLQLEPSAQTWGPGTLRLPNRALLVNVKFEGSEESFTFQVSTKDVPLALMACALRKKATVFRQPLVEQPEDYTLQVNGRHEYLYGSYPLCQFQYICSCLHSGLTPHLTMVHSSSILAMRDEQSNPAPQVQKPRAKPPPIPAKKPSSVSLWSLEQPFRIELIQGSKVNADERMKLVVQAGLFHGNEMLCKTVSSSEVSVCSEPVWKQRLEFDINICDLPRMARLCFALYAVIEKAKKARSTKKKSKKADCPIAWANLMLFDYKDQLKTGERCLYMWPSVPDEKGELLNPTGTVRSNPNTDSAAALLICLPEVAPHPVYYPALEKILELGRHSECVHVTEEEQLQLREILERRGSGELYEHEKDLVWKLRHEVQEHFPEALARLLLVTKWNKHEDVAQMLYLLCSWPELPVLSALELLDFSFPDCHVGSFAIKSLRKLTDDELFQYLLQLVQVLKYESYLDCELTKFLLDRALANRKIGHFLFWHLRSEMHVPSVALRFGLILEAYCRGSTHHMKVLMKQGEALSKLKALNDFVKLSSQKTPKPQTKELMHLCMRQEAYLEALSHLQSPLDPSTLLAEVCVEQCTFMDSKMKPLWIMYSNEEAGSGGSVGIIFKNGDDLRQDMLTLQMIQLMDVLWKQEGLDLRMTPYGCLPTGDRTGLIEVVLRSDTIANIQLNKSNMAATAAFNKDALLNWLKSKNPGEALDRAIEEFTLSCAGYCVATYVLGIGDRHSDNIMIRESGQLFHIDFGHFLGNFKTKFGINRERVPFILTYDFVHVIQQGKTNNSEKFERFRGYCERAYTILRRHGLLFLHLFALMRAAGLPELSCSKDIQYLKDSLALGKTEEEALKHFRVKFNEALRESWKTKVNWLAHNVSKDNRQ
PI3Kδ (p110δ/p85α) Recombinant Human Protein, sequence (P27986 whole entry partner): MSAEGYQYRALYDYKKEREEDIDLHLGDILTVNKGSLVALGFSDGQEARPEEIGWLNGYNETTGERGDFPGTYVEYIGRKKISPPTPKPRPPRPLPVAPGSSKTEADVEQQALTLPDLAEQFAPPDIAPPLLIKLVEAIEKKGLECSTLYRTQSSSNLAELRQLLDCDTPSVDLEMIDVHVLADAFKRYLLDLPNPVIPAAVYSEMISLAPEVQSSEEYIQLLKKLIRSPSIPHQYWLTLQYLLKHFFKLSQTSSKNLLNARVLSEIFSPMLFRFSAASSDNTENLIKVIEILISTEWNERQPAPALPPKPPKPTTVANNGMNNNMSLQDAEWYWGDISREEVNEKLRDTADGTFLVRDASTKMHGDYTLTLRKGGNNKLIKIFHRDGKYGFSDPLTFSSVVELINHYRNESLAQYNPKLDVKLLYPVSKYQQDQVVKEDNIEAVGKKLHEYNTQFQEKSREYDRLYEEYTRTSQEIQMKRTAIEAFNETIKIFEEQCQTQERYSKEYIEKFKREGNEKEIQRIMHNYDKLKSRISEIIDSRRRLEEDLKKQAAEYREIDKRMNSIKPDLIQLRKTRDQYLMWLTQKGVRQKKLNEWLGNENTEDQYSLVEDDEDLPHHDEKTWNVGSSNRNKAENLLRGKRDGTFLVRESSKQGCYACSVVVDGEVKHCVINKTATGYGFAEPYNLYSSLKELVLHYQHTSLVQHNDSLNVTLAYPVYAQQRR
PI3Kγ (p110γ) Recombinant Human Protein, sequence (P48736 whole entry): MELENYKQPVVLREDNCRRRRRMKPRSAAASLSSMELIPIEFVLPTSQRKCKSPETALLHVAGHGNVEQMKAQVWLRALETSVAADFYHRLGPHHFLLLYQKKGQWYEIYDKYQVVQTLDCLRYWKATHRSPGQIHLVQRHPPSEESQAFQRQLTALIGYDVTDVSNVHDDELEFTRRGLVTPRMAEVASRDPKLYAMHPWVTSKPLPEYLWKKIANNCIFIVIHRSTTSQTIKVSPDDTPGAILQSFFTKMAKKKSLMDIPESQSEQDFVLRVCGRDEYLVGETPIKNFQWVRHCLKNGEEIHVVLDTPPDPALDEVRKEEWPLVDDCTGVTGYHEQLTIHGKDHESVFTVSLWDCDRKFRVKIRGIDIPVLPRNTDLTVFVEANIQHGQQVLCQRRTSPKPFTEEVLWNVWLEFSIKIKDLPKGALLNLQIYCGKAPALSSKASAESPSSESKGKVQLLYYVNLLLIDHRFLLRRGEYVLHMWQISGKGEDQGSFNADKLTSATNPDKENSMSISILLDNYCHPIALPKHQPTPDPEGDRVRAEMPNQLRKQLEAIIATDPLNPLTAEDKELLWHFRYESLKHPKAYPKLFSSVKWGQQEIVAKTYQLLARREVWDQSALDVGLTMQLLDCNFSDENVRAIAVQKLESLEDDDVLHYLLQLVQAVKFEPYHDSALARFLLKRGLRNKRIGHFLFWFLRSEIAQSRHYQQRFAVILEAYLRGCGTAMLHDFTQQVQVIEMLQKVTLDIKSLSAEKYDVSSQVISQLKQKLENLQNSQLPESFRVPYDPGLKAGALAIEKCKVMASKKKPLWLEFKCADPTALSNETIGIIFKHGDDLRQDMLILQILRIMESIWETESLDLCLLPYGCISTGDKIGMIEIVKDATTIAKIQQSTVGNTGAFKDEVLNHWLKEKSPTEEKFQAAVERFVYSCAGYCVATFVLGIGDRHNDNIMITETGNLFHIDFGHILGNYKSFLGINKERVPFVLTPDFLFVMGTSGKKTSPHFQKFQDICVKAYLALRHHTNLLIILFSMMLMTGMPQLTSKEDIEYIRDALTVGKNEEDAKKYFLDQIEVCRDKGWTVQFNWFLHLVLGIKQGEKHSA

Cc1ccc(S(=O)(=O)NC23CC(N4CCOCC4)(C2)C3)cc1-c1cnc2c(N)nc(C(F)(F)F)cn12 [Example 296, 3-(8-Amino-6-(trifluoromethyl)imidazo[1,2-a]pyrazin-3-yl)-4-methyl-N-(3-morpholinobicyclo[1.1.1]pentan-1-yl)benzenesulfonamide trifluoroacetate salt]
IC50 [1]: < 100 nM
IC50 ([2]; Homo sapiens): 100 to 500 nM
IC50 [3]: 500 to 2000 nM

Cc1ccc(S(=O)(=O)N(C)[C@H]2CN(C)C[C@@H]2O)cc1-c1cnc2c(N)nc(C(F)(F)F)cn12 [Example 299, 3-(8-amino-6-(trifluoromethyl)imidazo[1,2-a]pyrazin-3-yl)-N-((3S,4S)-4-hydroxy-1-methylpyrrolidin-3-yl)-N,4-dimethylbenzenesulfonamide]
IC50 [1]: < 100 nM
IC50 ([2]; Homo sapiens): 100 to 500 nM
IC50 [3]: 100 to 500 nM

Cc1ccc(S(=O)(=O)N(CCC#N)C2CCCCC2)cc1-c1cnc2c(N)nc(C(F)(F)F)cn12 [Example 301, 3-(8-amino-6-(trifluoromethyl)imidazo[1,2-a]pyrazin-3-yl)-N-(2-cyanoethyl)-N-cyclohexyl-4-methylbenzenesulfonamide]
IC50 [1]: < 100 nM
IC50 ([2]; Homo sapiens): 100 to 500 nM
IC50 [3]: 500 to 2000 nM

Cc1ccc(S(=O)(=O)N2CC[C@H](N)C2)cc1-c1cnc2c(N)nc(C(F)(F)F)cn12 [Example 305, (S)-3-(5-((3-aminopyrrolidin-1-yl)sulfonyl)-2-methylphenyl)-6-(trifluoromethyl)imidazo[1,2-a]pyrazin-8-amine bis(trifluoroacetate)]
IC50 [1]: < 100 nM
IC50 ([2]; Homo sapiens): > 1000 nM
IC50 [3]: 100 to 500 nM

Cc1ccc(S(=O)(=O)N2C[C@@H](C)C[C@@H](N)C2)cc1-c1cnc2c(N)nc(C(F)(F)F)cn12 [Example 306, 3-(5-(((3R,5S)-3-amino-5-methylpiperidin-1-yl)sulfonyl)-2-methylphenyl)-6-(trifluoromethyl)imidazo[1,2-a]pyrazin-8-amine]
IC50 [1]: < 100 nM
IC50 ([2]; Homo sapiens): < 100 nM
IC50 [3]: < 100 nM

Cc1ccc(S(=O)(=O)N2C[C@H](N)C[C@H](C(F)(F)F)C2)cc1-c1cnc2c(N)nc(C(F)(F)F)cn12 [Example 307, 3-(5-(((3R,5S)-3-amino-5-(trifluoromethyl)piperidin-1-yl)sulfonyl)-2-methylphenyl)-6-(trifluoromethyl)imidazo[1,2-a]pyrazin-8-amine]
IC50 [1]: < 100 nM
IC50 ([2]; Homo sapiens): 100 to 500 nM
IC50 [3]: < 100 nM

Cc1ccc(S(=O)(=O)N2CC[C@@H](F)[C@@H](N)C2)cc1-c1cnc2c(N)nc(C(F)(F)F)cn12 [Example 308, 3-(5-(((3S,4R)-3-amino-4-fluoropiperidin-1-yl)sulfonyl)-2-methylphenyl)-6-(trifluoromethyl)imidazo[1,2-a]pyrazin-8-amine]
IC50 [1]: < 100 nM
IC50 ([2]; Homo sapiens): < 100 nM
IC50 [3]: < 100 nM

Cc1ccc(S(=O)(=O)N2CCC[C@@H](N(C)C)C2)cc1-c1cnc2c(N)nc(C(F)(F)F)cn12 [Example 309, (R)-3-(5-((3-(dimethylamino)piperidin-1-yl)sulfonyl)-2-methylphenyl)-6-(trifluoromethyl)imidazo[1,2-a]pyrazin-8-amine]
IC50 [1]: < 100 nM
IC50 ([2]; Homo sapiens): 100 to 500 nM
IC50 [3]: 500 to 2000 nM

Cc1ccc(S(=O)(=O)N[C@H]2CC[C@H](O)CC2)cc1-c1cnc2c(N)nc(C(F)(F)F)cn12 [Example 310, 3-(8-Amino-6-(trifluoromethyl)imidazo[1,2-a]pyrazin-3-yl)-N-(trans-4-hydroxycyclohexyl)-4-methylbenzenesulfonamide]
IC50 [1]: < 100 nM
IC50 ([2]; Homo sapiens): < 100 nM
IC50 [3]: 100 to 500 nM

Cc1ccc(S(=O)(=O)N[C@H]2CC[C@H](CO)OC2)cc1-c1cnc2c(N)nc(C(F)(F)F)cn12 [Example 311]
IC50 [1]: < 100 nM
IC50 [2]: < 100 nM
IC50 [3]: 100 to 500 nM

Cc1ccc(S(=O)(=O)N2CCCC(C)(CO)C2)cc1-c1cnc2c(N)nc(C(F)(F)F)cn12 (stereo not drawn) [Example 312, (1-((3-(8-Amino-6-(trifluoromethyl)imidazo[1,2-a]pyrazin-3-yl)-4-methylphenyl)sulfonyl)-3-methylpiperidin-3-yl)methanol]
IC50 [1]: < 100 nM
IC50 ([2]; Homo sapiens): 100 to 500 nM
IC50 [3]: 100 to 500 nM

Cc1ccc(S(=O)(=O)N2CCCC(C#N)C2)cc1-c1cnc2c(N)nc(C(F)(F)F)cn12 (stereo not drawn) [Example 314, 1-((3-(8-Amino-6-(trifluoromethyl)imidazo[1,2-a]pyrazin-3-yl)-4-methylphenyl)sulfonyl)piperidine-3-carbonitrile]
IC50 [1]: < 100 nM
IC50 ([2]; Homo sapiens): 100 to 500 nM
IC50 [3]: 100 to 500 nM

Cc1ccc(S(=O)(=O)NCC2(F)COC2)cc1-c1cnc2c(N)nc(C(F)(F)F)nn12 [Example 315, 3-(4-Amino-2-(trifluoromethyl)imidazo[1,2-f][1,2,4]triazin-7-yl)-N-((3-fluorooxetan-3-yl)methyl)-4-methylbenzenesulfonamide trifluoroacetate salt]
IC50 [1]: < 100 nM
IC50 [2]: < 100 nM
IC50 [3]: < 100 nM

Cc1ccc(S(=O)(=O)NCC2(O)COC2)cc1-c1cnc2c(N)nc(C(F)(F)F)nn12 [Example 316, 3-(4-Amino-2-(trifluoromethyl)imidazo[1,2-f][1,2,4]triazin-7-yl)-N-((3-hydroxyoxetan-3-yl)methyl)-4-methylbenzenesulfonamide trifluoroacetate salt]
IC50 [1]: < 100 nM
IC50 [2]: < 100 nM
IC50 [3]: 100 to 500 nM

Cc1ccc(S(=O)(=O)NCC(C)(C)O)cc1-c1cnc2c(N)nc(C(F)(F)F)nn12 [Example 317, 3-(4-Amino-2-(trifluoromethyl)imidazo[1,2-f][1,2,4]triazin-7-yl)-N-(2-hydroxy-2-methylpropyl)-4-methylbenzenesulfonamide trifluoroacetate salt]
IC50 [1]: < 100 nM
IC50 [2]: < 100 nM
IC50 [3]: 100 to 500 nM

Cc1ccc(S(=O)(=O)NCC2(C)COC2)cc1-c1cnc2c(N)nc(C(F)(F)F)nn12 [Example 318, 3-(4-Amino-2-(trifluoromethyl)imidazo[1,2-f][1,2,4]triazin-7-yl)-4-methyl-N-((3-methyloxetan-3-yl)methyl)benzenesulfonamide trifluoroacetate salt]
IC50 [1]: < 100 nM
IC50 [2]: < 100 nM
IC50 [3]: 100 to 500 nM

Cc1ccc(S(=O)(=O)NC23CC(CO)(C2)C3)cc1-c1cnc2c(N)nc(C(F)(F)F)nn12 [Example 319, 3-(4-Amino-2-(trifluoromethyl)imidazo[1,2-f][1,2,4]triazin-7-yl)-N-(3-(hydroxymethyl)bicyclo[1.1.1]pentan-1-yl)-4-methylbenzenesulfonamide]
IC50 [1]: < 100 nM
IC50 [2]: < 100 nM
IC50 [3]: 100 to 500 nM

Cc1ccc(S(=O)(=O)NC2CN(C)C2)cc1-c1cnc2c(N)nc(C(F)(F)F)nn12 [Example 322, 3-(4-Amino-2-(trifluoromethyl)imidazo[1,2-f][1,2,4]triazin-7-yl)-4-methyl-N-(1-methylazetidin-3-yl)benzenesulfonamide]
IC50 [1]: < 100 nM
IC50 [2]: < 100 nM
IC50 [3]: 100 to 500 nM

Cc1ccc(S(=O)(=O)N[C@H]2C[C@H](CO)C2)cc1-c1cnc2c(N)nc(C(F)(F)F)nn12 [Example 323, 3-(4-Amino-2-(trifluoromethyl)imidazo[1,2-f][1,2,4]triazin-7-yl)-N-((1r,3r)-3-(hydroxymethyl)cyclobutyl)-4-methylbenzenesulfonamide trifluoroacetate salt]
IC50 [1]: < 100 nM
IC50 [2]: < 100 nM
IC50 [3]: 100 to 500 nM

Cc1ccc(S(=O)(=O)NC23CC(Cn4ccnc4)(C2)C3)cc1-c1cnc2c(N)nc(C(F)(F)F)nn12 [Example 324, N-(3-((1H-Imidazol-1-yl)methyl)bicyclo[1.1.1]pentan-1-yl)-3-(4-amino-2-(trifluoromethyl)imidazo[1,2-f][1,2,4]triazin-7-yl)-4-methylbenzenesulfonamide trifluoroacetate salt]
IC50 [1]: < 100 nM
IC50 [2]: < 100 nM
IC50 [3]: 100 to 500 nM

CC(=O)N1CC(O)(CNS(=O)(=O)c2ccc(C)c(-c3cnc4c(N)nc(C(F)(F)F)nn34)c2)C1 [Example 325, N-((l-Acetyl-3-hydroxyazetidin-3-yl)methyl)-3-(4-amino-2-(trifluoromethyl)imidazo[1,2-f][1,2,4]triazin-7-yl)-4-methylbenzenesulfonamide trifluoroacetate salt]
IC50 [1]: < 100 nM
IC50 [2]: 100 to 500 nM
IC50 [3]: < 100 nM

Cc1ccc(S(=O)(=O)N[C@H]2CC[C@](C)(O)CC2)cc1-c1cnc2c(N)nc(C(F)(F)F)nn12 [Example 327, 3-(4-Amino-2-(trifluoromethyl)imidazo[1,2-f][1,2,4]triazin-7-yl)-N-((1r,4r)-4-hydroxy-4-methylcyclohexyl)-4-methylbenzenesulfonamide trifluoroacetate salt]
IC50 [1]: < 100 nM
IC50 [2]: 100 to 500 nM
IC50 [3]: 100 to 500 nM

Cc1ccc(S(=O)(=O)NC23CCC(CO)(C2)C3)cc1-c1cnc2c(N)nc(C(F)(F)F)nn12 [Example 328, 3-(4-Amino-2-(trifluoromethyl)imidazo[1,2-f][1,2,4]triazin-7-yl)-N-(4-(hydroxymethyl)bicyclo[2.1.1]hexan-1-yl)-4-methylbenzenesulfonamide trifluoroacetate salt]
IC50 [1]: < 100 nM
IC50 [2]: < 100 nM
IC50 [3]: 100 to 500 nM
